Structures are written as SMILES.

T1 sequence (P61169 whole entry): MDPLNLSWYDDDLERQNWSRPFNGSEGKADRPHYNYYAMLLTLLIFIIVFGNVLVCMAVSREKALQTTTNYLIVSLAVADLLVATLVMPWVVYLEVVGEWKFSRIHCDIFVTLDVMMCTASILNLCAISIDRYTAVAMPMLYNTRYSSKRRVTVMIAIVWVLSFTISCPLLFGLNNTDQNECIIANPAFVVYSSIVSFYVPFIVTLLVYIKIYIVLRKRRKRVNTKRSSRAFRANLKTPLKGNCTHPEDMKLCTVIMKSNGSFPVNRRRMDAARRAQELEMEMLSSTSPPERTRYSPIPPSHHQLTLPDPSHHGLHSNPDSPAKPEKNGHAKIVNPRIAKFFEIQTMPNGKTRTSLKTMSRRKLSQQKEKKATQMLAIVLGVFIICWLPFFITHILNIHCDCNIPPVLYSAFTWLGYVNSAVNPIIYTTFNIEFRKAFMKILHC

The first assay addresses T1, D2 (dopamine autoreceptor) (Rattus norvegicus, UniProt P61169).
T1 construct: homogenized rat striatal brain tissue; from tissue; host or cells: rat striatal brain tissue (homogenate)
The assay is described as follows: Affinity for dopamine autoreceptor (D2 high-affinity agonist state), 3H-quinpirole binding, rat striatal brain tissue. To be noted: read-out: IC50 (nM) D2 Quin. The protocol:
Affinity for the dopamine autoreceptor was established by a modification of the standard experimental test procedure of Seemen and Schaus, European Journal of Pharmacology 203: 105-109, 1991, wherein homogenized rat striatal brain tissue is incubated with ^3 H-quinpirole (Quin.) and various concentrations of test compound, filtered and washed and counted in a Betaplate scintillation counter.
Regarding `O=c1[nH]c2cc(Cl)cc(OCCNCc3ccccc3)c2[nH]1` [Example 9, 4-(2-Benzylamino-ethoxy)-6-chloro-1,3-dihydro-benzoimidazol-2-one], the IC50 came out at 0.48 nM.
With `O=c1[nH]c2cccc(OCCNCCCc3ccccc3)c2[nH]1` [Example 13, 4-[2-(3-Phenyl-propylamine)-ethoxy]-1,3-dihydro-benzoimidazol-2-one], the IC50 was 0.3 nM.
Consider `O=c1[nH]c2cc(Cl)cc(OCCNCc3cccs3)c2[nH]1` [Example 10, 6-Chloro-4-{2-[(thiophen-2-ylmethyl)-amino]-ethoxy}-1,3-dihydro-benzoimidazol-2-one], for which the IC50 amounted to 0.47 nM.
With `Cn1c(=O)[nH]c2cccc(OCCNCc3ccccc3)c21` [Example 3, 4(7)-(2-Benzylamino-ethoxy)-1-(3)-methyl-1,3-dihydro-benzoimidazol-2-one], the IC50 is 2.92 nM.
Turning to `O=c1[nH]c2cccc(OCCNCc3ccc(Cl)cc3)c2[nH]1` [Example 8, 4-[2-(4-Chloro-benzylamino)-ethoxy]-1,3-dihydro-benzoimidazol-2-one], the IC50 is 0.3 nM.
In the case of `Cc1ccc(CNCCOc2cccc3[nH]c(=O)[nH]c23)cc1` [Example 2, 4-[2-(4-Methyl-benzylamino)-ethoxy]-1,3-dihydro-benzoimidazol-2-one], the IC50 amounted to 0.29 nM.
On to `O=c1[nH]c2cc(Cl)cc(OCCNCc3ccsc3)c2[nH]1` [Example 11, 6-Chloro-4-{2-[(thiophen-3-ylmethyl)-amino]-ethoxy}-1,3-dihydro-benzoimidazol-2-one], for which the IC50 amounted to 0.31 nM.
Still for that read-out and setting: next, `O=c1[nH]c2cccc(OCCNCc3ccccc3)c2[nH]1` [Example 1, 4-(2-Benzylamino-ethoxy)-1,3-dihydro-benzoimidazol-2-one]: 0.51 nM.
On to `O=c1[nH]c2cccc(OCCN3CCc4ccccc4C3)c2[nH]1` [Example 12, 4-[2-(2,3-Dihydro-1H-isoquinolin-2yl)-ethoxy]-1,3-dihydro-benzoimidazol-2-one], for which the IC50 came out at 12 nM.
The same measure, in the same setting: next, `CC(C)(C)c1ccc(CNCCOc2cccc3[nH]c(=O)[nH]c23)cc1` [Example 6, 4-[2-(4-tert-Butyl-benzylamino)-ethoxy]-1,3-dihydro-benzoimidazol-2-one]: 0.81 nM; `O=c1[nH]c2cccc(OCCNCc3cccs3)c2[nH]1` [Example 7, 4-{2-[(Thiophen-2-ylmethyl)-amino]-ethoxy}-1,3-dihydro-benzoimidazol-2-one]: 0.51 nM.
Same read-out and setting: the figure for `O=c1[nH]c2cccc(OCCNCc3cccc4ccccc34)c2[nH]1` [Example 5, 4-{2-[(Naphthalen-1-ylmethyl)-amino]-ethoxy}-1,3-dihydro-benzoimidazol-2-one] is 0.6 nM.
Regarding `O=c1[nH]c2cccc(OCCCNCc3ccccc3)c2[nH]1` [Example 4, 4-(3-Benzylamino-propoxy)-1,3-dihydro-benzoimidazol-2-one], the IC50 came out at 126 nM.

In another assay the target is T2, dopamine D-2 receptor (Rattus norvegicus, UniProt P61169).
T2 construct: homogenized limbic brain tissue; from tissue; host or cells: limbic brain tissue (homogenate)
T2 sequence (P61169 whole entry): as above
The assay is described as follows: Affinity for dopamine D-2 receptor, 3H-spiroperidol (Spiper.) binding, homogenized limbic brain tissue. To be noted: read-out: IC50 (nM) D2 Spiper. The protocol:
High affinity for the dopamine D-2 receptor was established by the standard experimental test procedure of Fields, et al., Brain Res., 136, 578 (1977) and Yamamura et al., eds., Neurotransmitter Receptor Binding, Raven Press, N.Y. (1978) wherein homogenized limbic brain tissue is incubated with ^3 H-spiroperidol (Spiper.) and various concentrations of test compound, filtered and washed and shaken with Hydrofluor scintillation cocktail (National Diagnostics) and counted in a Packard 460 CD scintillation counter.
Regarding `O=c1[nH]c2cc(Cl)cc(OCCNCc3ccccc3)c2[nH]1` [Example 9, 4-(2-Benzylamino-ethoxy)-6-chloro-1,3-dihydro-benzoimidazol-2-one], the IC50 amounted to 34.6 nM.
`O=c1[nH]c2cccc(OCCNCCCc3ccccc3)c2[nH]1` [Example 13, 4-[2-(3-Phenyl-propylamine)-ethoxy]-1,3-dihydro-benzoimidazol-2-one]: the IC50 turned out to be 30 nM.
On the same count and under the same terms, next, `O=c1[nH]c2cc(Cl)cc(OCCNCc3cccs3)c2[nH]1` [Example 10, 6-Chloro-4-{2-[(thiophen-2-ylmethyl)-amino]-ethoxy}-1,3-dihydro-benzoimidazol-2-one]: 58 nM.
Turning to `Cn1c(=O)[nH]c2cccc(OCCNCc3ccccc3)c21` [Example 3, 4(7)-(2-Benzylamino-ethoxy)-1-(3)-methyl-1,3-dihydro-benzoimidazol-2-one], the IC50 worked out at 1350 nM.
Still for that read-out and setting: next, `O=c1[nH]c2cccc(OCCNCc3ccc(Cl)cc3)c2[nH]1` [Example 8, 4-[2-(4-Chloro-benzylamino)-ethoxy]-1,3-dihydro-benzoimidazol-2-one]: 99.5 nM; `Cc1ccc(CNCCOc2cccc3[nH]c(=O)[nH]c23)cc1` [Example 2, 4-[2-(4-Methyl-benzylamino)-ethoxy]-1,3-dihydro-benzoimidazol-2-one]: 28.5 nM.
The same measure, in the same setting: next, `O=c1[nH]c2cc(Cl)cc(OCCNCc3ccsc3)c2[nH]1` [Example 11, 6-Chloro-4-{2-[(thiophen-3-ylmethyl)-amino]-ethoxy}-1,3-dihydro-benzoimidazol-2-one]: 67 nM; `O=c1[nH]c2cccc(OCCNCc3ccccc3)c2[nH]1` [Example 1, 4-(2-Benzylamino-ethoxy)-1,3-dihydro-benzoimidazol-2-one]: 60.6 nM.
The same measure, in the same setting: next, `O=c1[nH]c2cccc(OCCN3CCc4ccccc4C3)c2[nH]1` [Example 12, 4-[2-(2,3-Dihydro-1H-isoquinolin-2yl)-ethoxy]-1,3-dihydro-benzoimidazol-2-one]: 658 nM.
With `CC(C)(C)c1ccc(CNCCOc2cccc3[nH]c(=O)[nH]c23)cc1` [Example 6, 4-[2-(4-tert-Butyl-benzylamino)-ethoxy]-1,3-dihydro-benzoimidazol-2-one], the IC50 turned out to be 47.8 nM.
Take `O=c1[nH]c2cccc(OCCNCc3cccs3)c2[nH]1` [Example 7, 4-{2-[(Thiophen-2-ylmethyl)-amino]-ethoxy}-1,3-dihydro-benzoimidazol-2-one]: the IC50 was 255 nM.
As to `O=c1[nH]c2cccc(OCCNCc3cccc4ccccc34)c2[nH]1` [Example 5, 4-{2-[(Naphthalen-1-ylmethyl)-amino]-ethoxy}-1,3-dihydro-benzoimidazol-2-one], the IC50 came out at 38.7 nM.
For the molecule `O=c1[nH]c2cccc(OCCCNCc3ccccc3)c2[nH]1` [Example 4, 4-(3-Benzylamino-propoxy)-1,3-dihydro-benzoimidazol-2-one], the IC50 was found to be 5980 nM.

Usually IC50 stands for the concentration needed to halve the response being measured.

The values are drawn from patent publication US5990144A, “4-aminoalkoxy-1,3-dihydrobenzoimidazol-2-one dopamine autoreceptor agonists” (American Home Products Corporation, priority 1998, dated 1999).
